Measured values as given in ChEMBL document CHEMBL1909514, “Imidazo[2,1-b]thiazole guanylhydrazones as RSK2 inhibitors” (Eur J Med Chem, 2011).
Activity calls are given as the source filed them.

Tests used:
[1] = target: T1, Ribosomal protein S6 kinase alpha-3 (Homo sapiens, UniProt P51812)
Description: Inhibition of RSK2 assessed as inhibition of substrate phosphorylation using fluorescent peptide substrate by microplate reader assay

[2] = target: T2, Aurora kinase A (Homo sapiens) (UniProt O14965); experiment: Inhibition of Aurora kinase A assessed as inhibition of substrate phosphorylation using fluorescent peptide substrate up to 100 uM by microplate reader assay
T2 sequence (whole entry): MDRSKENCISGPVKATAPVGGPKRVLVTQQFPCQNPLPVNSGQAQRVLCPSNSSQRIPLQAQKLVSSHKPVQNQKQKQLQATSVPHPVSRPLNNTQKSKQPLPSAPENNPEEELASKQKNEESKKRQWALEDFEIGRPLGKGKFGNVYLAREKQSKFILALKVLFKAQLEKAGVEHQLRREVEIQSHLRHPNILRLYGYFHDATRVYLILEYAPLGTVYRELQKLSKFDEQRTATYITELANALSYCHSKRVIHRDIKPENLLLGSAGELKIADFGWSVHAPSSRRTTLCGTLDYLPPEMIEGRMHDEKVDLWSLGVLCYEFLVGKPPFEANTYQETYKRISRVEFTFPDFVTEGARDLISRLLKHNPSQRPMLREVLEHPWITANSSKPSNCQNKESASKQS

[3] = target: Serine/threonine-protein kinase Chk2 (Homo sapiens, UniProt O96017)
Chain of Serine/threonine-protein kinase Chk2 (O96017 whole entry): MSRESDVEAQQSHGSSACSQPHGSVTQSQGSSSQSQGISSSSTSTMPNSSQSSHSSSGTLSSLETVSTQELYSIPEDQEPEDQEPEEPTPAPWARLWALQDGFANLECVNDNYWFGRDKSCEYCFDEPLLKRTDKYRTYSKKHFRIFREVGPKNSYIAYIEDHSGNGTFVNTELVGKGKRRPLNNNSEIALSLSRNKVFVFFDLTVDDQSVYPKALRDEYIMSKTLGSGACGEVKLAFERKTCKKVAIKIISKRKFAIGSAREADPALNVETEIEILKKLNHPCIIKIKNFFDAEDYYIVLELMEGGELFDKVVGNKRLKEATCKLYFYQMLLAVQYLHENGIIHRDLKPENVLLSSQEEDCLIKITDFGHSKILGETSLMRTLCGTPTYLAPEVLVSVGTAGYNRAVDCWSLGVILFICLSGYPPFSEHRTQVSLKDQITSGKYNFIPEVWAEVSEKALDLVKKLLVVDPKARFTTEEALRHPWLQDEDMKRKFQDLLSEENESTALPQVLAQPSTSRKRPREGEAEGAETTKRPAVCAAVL
Description: Inhibition of CHK2 assessed as inhibition of substrate phosphorylation using fluorescent peptide substrate by microplate reader assay

[4] = target: T3, Serine/threonine-protein kinase Chk1 (Homo sapiens, UniProt O14757)
T3 sequence (O14757 whole entry): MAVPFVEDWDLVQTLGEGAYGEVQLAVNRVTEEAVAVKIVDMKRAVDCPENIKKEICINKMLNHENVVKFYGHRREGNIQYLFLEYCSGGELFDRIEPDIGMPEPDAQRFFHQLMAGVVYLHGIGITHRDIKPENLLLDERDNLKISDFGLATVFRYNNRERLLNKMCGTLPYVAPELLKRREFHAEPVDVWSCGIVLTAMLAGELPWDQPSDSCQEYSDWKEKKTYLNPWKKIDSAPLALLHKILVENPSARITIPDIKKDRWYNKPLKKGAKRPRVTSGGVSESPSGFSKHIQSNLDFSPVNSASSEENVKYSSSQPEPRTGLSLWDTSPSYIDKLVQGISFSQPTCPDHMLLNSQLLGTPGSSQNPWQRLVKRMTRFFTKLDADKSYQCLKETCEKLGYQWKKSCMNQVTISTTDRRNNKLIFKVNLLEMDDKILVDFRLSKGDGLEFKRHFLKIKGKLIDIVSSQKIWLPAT
Description: Inhibition of CHK1 assessed as inhibition of substrate phosphorylation using fluorescent peptide substrate by microplate reader assay

[5] = target: T1, Ribosomal protein S6 kinase alpha-3; experiment: Inhibition of RSK2-mediated GSK3alpha Ser21 phosphorylation in TPA-induced human MCF7 cells at 10 nM pretreated for 30 mins by immunoblotting; format: cell-based
[6] = target: T1, Ribosomal protein S6 kinase alpha-3; experiment: Inhibition of RSK2-mediated GSK3-beta Ser9 phosphorylation in TPA-induced human MCF7 cells at 10 nM pretreated for 30 mins by immunoblotting; format: cell-based
MCF-10A = experiment: Antiproliferative activity against human MCF10A cells assessed as reduction in cell viability after 48 hrs celltiter glo assay; format: cell-based
MCF7 = experiment: Antiproliferative activity against human MCF7 cells assessed as reduction in cell viability after 48 hrs celltiter glo assay; format: functional, cell-based

T1 sequence (P51812 whole entry): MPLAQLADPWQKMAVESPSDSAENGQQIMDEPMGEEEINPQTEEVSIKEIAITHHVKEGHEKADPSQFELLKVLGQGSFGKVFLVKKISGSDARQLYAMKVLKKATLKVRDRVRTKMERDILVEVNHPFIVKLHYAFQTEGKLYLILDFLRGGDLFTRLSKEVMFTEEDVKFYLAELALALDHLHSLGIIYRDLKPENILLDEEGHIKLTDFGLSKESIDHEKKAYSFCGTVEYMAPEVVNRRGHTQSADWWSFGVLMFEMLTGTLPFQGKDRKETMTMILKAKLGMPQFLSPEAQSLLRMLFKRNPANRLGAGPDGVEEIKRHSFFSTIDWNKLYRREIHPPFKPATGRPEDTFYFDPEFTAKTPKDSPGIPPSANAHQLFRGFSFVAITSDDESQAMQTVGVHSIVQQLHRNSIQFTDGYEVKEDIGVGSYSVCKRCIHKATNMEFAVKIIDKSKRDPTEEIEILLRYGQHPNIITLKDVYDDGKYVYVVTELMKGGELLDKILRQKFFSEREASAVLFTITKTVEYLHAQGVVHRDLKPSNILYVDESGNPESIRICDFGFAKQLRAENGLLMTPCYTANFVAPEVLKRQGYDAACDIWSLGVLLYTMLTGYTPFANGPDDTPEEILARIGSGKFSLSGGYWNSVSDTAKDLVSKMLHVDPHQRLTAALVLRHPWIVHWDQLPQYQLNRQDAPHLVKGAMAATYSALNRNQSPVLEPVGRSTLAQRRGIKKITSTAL

| Structure (SMILES) | IC50 [1] | inhibition [2] | IC50 [3] | IC50 [4] | inhibition [5] | inhibition [6] | Activity (MCF-10A) | Activity (MCF7) |
| --- | --- | --- | --- | --- | --- | --- | --- | --- |
| N=C(N)N/N=C/c1c(-c2ccc(F)cc2)nc2sc(Cl)cn12 | 86 µM | inactive | 90 µM | > 100 µM |  |  |  |  |
| COc1cc([N+](=O)[O-])c(OC)cc1-c1nc2sc3ccccc3n2c1/C=N/NC(=N)N | 10.1 µM | inactive | > 100 µM | > 100 µM |  |  |  |  |
| N=C(N)N/N=C/c1c(-c2ccc([N+](=O)[O-])cc2)nc2sc(Cl)cn12 | 0.97 µM | 50% | 78.8 µM | > 100 µM | 50% | 50% |  |  |
| Cc1cn2c(/C=N/NC(=N)N)c(-c3ccc([N+](=O)[O-])cc3)nc2s1.Cl | 2.8 µM |  | 83 µM | > 100 µM |  |  | Toxic | Active |
| N=C(N)N/N=C\c1c(-c2ccc(Br)c([N+](=O)[O-])c2)nc2sccn12 | 56.7 µM | inactive | > 100 µM | > 100 µM |  |  |  |  |
| Cc1cn2c(/C=N\NC(=N)N)c(-c3ccc(F)cc3)nc2s1 | > 100 µM | inactive | > 50 µM | > 100 µM |  |  |  |  |
| COc1cc([N+](=O)[O-])c(OC)cc1-c1nc2ccccn2c1/C=N/NC(=N)N | 7.8 µM | inactive | > 100 µM | > 100 µM |  |  |  |  |
| N#Cc1ccc(-c2nc3sc(Cl)cn3c2/C=N/NC(=N)N)cc1 | 8.55 µM | inactive | 93.5 µM | > 100 µM |  |  |  |  |
| CCCc1cn2c(/C=N/NC(=N)N)c(-c3ccc([N+](=O)[O-])cc3)nc2s1 | 20.9 µM |  | > 100 µM | > 100 µM |  |  |  |  |
| N=C(N)N/N=C/c1c(-c2ccc(Cl)c([N+](=O)[O-])c2)nc2ccccn12 | 2.89 µM |  | 79 µM | > 100 µM |  |  |  |  |
| Cl.N=C(N)N/N=C/c1c(-c2ccc(Cl)c([N+](=O)[O-])c2)nc2sccn12 | 3.13 µM |  | 81 µM | > 100 µM |  |  | Non-toxic | Active |
| N=C(N)N/N=C/c1c(-c2ccc(F)c([N+](=O)[O-])c2)nc2sc(Cl)cn12 | 3.93 µM | inactive | 41.3 µM | > 100 µM |  |  |  |  |
| N=C(N)N/N=C\c1c(-c2ccc(F)cc2)nc2sccn12 | > 100 µM | inactive | > 100 µM | > 100 µM |  |  |  |  |
| N=C(N)N/N=C/c1c(-c2cc([N+](=O)[O-])c(Cl)cc2Cl)nc2sccn12 | 5.93 µM |  | > 100 µM | > 100 µM |  |  |  |  |
| Cl.N=C(N)N/N=C/c1c(-c2ccc(Cl)c([N+](=O)[O-])c2)nc2sc(Cl)cn12 | 5.85 µM |  | 90 µM | > 100 µM |  |  | Non-toxic | Active |
| Cc1csc2nc(-c3cccnc3)c(/C=N/NC(=N)N)n12 | 100 µM |  | 34.3 µM | > 100 µM |  |  |  |  |
| CCCc1cn2c(/C=N/NC(=N)N)c(-c3ccc(Cl)c([N+](=O)[O-])c3)nc2s1 | 6.43 µM |  | 90.5 µM | > 100 µM |  |  |  |  |
| Cc1sc2nc(-c3ccc(Cl)c([N+](=O)[O-])c3)c(/C=N/NC(=N)N)n2c1C | 13.9 µM |  | 48.5 µM | > 100 µM |  |  |  |  |
| N=C(N)N/N=C/c1c(-c2ccc(Cl)cc2)nc2sc(Cl)cn12 | 14 µM |  | 49.3 µM | > 7900 µM |  |  |  |  |
| Cc1cn2c(/C=N/NC(=N)N)c(-c3cc(Cl)sc3Cl)nc2s1 | 26.5 µM |  | > 100 µM | > 100 µM |  |  |  |  |
| Cc1csc2nc(-c3ccc(Cl)c([N+](=O)[O-])c3)c(/C=N/NC(=N)N)n12 | 44.8 µM |  | 84.4 µM | > 100 µM |  |  |  |  |
| N=C(N)N/N=C/c1c(-c2cc(Cl)sc2Cl)nc2sc3ccccc3n12 | 12 µM | inactive | > 100 µM | > 100 µM |  |  |  |  |
| Cl.N=C(N)N/N=C\c1c(-c2ccc([N+](=O)[O-])cc2)nc2sc(F)cn12 | 2.15 µM | inactive | 56.5 µM | > 100 µM | 50% | 50% | Non-toxic | Active |
| Cc1cn2c(/C=N\NC(=N)N)c(-c3ccc(F)c([N+](=O)[O-])c3)nc2s1 | 30.7 µM | inactive | 18.8 µM | 78.5 µM |  |  |  |  |
| N=C(N)N/N=C/c1c(-c2cc(Cl)sc2Cl)nc2sc(Cl)cn12 | 8.26 µM | inactive | > 100 µM | > 100 µM |  |  |  |  |
| N=C(N)N/N=C/c1c(-c2cc(Cl)sc2Cl)nc2sccn12 | 79 µM |  | 65 µM | > 100 µM |  |  |  |  |
| COc1cc([N+](=O)[O-])c(OC)cc1-c1nc2sc(Cl)cn2c1/C=N/NC(=N)N/N=C/c1c(-c2cc(OC)c([N+](=O)[O-])cc2OC)nc2sc(Cl)cn12 | 11.4 µM |  | > 100 µM | > 100 µM |  |  |  |  |
| N=C(N)N/N=C\c1c(-c2ccc(F)c([N+](=O)[O-])c2)nc2sccn12 | 53.8 µM | inactive | 77.5 µM | > 100 µM |  |  |  |  |
